Assay [1] concerns the target T1, Nitric oxide synthase, inducible (Homo sapiens, UniProt P35228). Description: Compound was tested for inhibitory activity against inducible nitric oxide synthase using L-arginine as substrate.
For the next assay, the target named is Nitric oxide synthase 1 (Homo sapiens, UniProt P29475). Briefly: Compound was tested for inhibitory activity against neuronal nitric oxide synthase.
The target in assay [2] is T1, Nitric oxide synthase, inducible. Briefly: Compound was tested for inhibitory activity against inducible nitric oxide synthase.

Experimental findings from ChEMBL document CHEMBL1130584, “Synthesis of boronic acid analogs of L-arginine as alternate substrates or inhibitors of nitric oxide synthase” (Bioorg Med Chem Lett, 1998) are described below.

Each structure is given as a SMILES string. Bounds are passed on as bounds.

Broadly, the IC50 is the concentration that gives 50% inhibition. Lower therefore signals inhibition by little substance.

T1 sequence (P35228 whole entry): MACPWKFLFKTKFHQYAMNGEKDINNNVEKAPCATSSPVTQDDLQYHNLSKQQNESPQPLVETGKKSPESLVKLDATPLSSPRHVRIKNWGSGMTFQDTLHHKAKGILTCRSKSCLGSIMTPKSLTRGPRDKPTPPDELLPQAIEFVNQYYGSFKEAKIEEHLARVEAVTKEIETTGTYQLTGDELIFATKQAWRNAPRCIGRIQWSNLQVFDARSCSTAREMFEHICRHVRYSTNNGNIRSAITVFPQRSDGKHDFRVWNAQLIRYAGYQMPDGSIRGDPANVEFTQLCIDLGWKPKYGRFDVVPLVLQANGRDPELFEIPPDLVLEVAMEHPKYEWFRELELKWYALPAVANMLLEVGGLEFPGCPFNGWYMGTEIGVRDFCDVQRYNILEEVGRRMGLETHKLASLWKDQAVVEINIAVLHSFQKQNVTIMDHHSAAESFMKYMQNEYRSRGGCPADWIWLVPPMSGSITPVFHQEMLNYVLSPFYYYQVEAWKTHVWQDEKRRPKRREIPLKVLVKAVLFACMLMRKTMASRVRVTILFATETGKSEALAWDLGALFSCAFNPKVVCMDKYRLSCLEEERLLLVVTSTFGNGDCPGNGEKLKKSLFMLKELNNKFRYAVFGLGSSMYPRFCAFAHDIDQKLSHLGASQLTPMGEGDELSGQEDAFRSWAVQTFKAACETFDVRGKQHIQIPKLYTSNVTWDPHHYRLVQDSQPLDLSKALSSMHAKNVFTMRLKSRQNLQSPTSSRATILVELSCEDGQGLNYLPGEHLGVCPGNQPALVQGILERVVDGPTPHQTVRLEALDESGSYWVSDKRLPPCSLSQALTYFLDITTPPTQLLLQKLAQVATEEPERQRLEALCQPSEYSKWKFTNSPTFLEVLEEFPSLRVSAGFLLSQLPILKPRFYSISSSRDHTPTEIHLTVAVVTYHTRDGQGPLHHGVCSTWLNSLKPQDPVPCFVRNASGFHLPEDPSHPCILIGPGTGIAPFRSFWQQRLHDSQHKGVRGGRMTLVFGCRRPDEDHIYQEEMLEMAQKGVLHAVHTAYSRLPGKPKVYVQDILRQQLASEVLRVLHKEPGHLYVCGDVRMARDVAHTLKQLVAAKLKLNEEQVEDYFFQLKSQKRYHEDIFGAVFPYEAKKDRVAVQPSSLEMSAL
Nitric oxide synthase 1, sequence (P29475 whole entry): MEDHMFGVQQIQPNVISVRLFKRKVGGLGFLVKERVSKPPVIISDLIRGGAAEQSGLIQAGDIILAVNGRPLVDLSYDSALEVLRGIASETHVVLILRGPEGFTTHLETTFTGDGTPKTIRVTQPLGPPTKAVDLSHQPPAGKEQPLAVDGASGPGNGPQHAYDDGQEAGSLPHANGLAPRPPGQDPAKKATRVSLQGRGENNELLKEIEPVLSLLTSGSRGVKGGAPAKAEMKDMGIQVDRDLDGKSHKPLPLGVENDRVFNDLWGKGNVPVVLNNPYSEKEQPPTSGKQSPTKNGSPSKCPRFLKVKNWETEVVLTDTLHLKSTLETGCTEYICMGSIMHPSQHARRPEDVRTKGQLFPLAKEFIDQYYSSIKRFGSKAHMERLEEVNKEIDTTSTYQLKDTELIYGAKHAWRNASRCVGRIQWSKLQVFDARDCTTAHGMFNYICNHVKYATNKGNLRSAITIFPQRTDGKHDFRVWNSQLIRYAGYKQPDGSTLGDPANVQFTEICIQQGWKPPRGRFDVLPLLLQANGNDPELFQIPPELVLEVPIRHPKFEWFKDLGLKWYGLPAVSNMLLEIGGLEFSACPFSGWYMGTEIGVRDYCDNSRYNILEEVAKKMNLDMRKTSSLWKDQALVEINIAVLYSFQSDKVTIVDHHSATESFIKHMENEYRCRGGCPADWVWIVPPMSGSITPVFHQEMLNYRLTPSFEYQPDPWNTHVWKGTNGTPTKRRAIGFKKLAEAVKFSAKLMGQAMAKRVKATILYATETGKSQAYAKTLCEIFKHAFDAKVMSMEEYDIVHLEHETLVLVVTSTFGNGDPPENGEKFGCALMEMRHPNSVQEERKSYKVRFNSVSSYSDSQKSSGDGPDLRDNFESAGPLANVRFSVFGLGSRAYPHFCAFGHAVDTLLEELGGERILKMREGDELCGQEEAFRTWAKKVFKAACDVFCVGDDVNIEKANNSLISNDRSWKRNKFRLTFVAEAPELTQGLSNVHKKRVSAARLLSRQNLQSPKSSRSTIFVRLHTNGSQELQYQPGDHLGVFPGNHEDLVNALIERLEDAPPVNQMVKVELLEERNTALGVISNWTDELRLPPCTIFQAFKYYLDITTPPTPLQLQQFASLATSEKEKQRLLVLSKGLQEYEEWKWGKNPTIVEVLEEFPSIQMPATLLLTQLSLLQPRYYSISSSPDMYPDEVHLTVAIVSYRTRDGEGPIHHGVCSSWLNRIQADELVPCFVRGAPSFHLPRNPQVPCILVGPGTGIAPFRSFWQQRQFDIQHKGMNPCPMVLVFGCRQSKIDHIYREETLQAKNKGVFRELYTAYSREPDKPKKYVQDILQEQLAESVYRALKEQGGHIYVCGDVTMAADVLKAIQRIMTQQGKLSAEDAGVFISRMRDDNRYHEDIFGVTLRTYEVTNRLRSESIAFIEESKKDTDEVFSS

In assay [1], `NC(N)=NCCC[C@H](N)B(O)O` registered a Ks of 200 µM. Moreover, the IC50 against Nitric oxide synthase 1 was 300 µM; in assay [2] it was 50 µM.

Consider `CC(=O)N[C@@H](CCCN=C(N)N)B(O)O`, for which the IC50 (at Nitric oxide synthase 1; in assay [2]) was > 500 µM each time.
